In patent US7960397B2, “6,9-disubstituted purine derivatives and their use as cosmetics and cosmetic compositions” (Institute of Experimental Botany, Academy of Sciences of …, priority 2007, dated 2011):
Where two headings read alike, the source gives them in different places.

How the values were obtained:
[1] = tested on: cytokinin-dependent tobacco callus Nicotiana tabacum L. cv. Wisconsin 38; experiment: Cytokinin activity in tobacco callus bioassay; format: cell-based; settings: for concentration with highest activity: growth of tobacco callus, four weeks of cultivation, tested 10^−8 M to 10^−4 M; for Activity (%) [10^−5 mol · l^−1 BAP = 100%]: increase of fresh callus weight at the concentration with highest activity, 10^−5 M BAP = 100%
Method: Estimation of cytokinin biological activity of novel compounds in callus bioassay. Cytokinin-dependent tobacco callus Nicotiana tabacum L. cv. […] Subcultivation was carried out every three weeks. Fourteen days before the bioassay, the callus tissue was transferred to the media without the compound tested. The biological activity was determined from the increase of the fresh callus weight after four weeks of cultivation. Five replicates were prepared for each concentration of the compound tested and the entire test was repeated twice. […] The relative activity of the compound at this concentration was calculated (Table 8). […] The compounds to be tested were dissolved in dimethylsulfoxide (DMSO) and the solution brought up to 10^−3 M with distilled water. This stock solution was further diluted with the respective media used for the biotest to a concentration ranging from 10^−8 M to 10^−4 M.

[2] = tested on: Amaranthus caudatus cotyledon/hypocotyl explants; experiment: Amaranthus bioassay (betacyanin content); set-up: species or system Amaranthus caudatus var. atropurpurea; settings: for concentration with highest activity: betacyanin content after 48 h incubation, tested 10^−8 M to 10^−4 M; for Activity (%) [10^−5 mol · l^−1 BAP = 100%]: betacyanin content at the concentration with highest activity, 10^−5 M BAP = 100%
Method: Testing of novel compounds for typical cytokinin activity in Amaranthus bioassay. A standard Amaranthus bioassay was performed with several modifications. The seeds of Amaranthus caudatus var. atropurpurea were surface-sterilized in 10% (w/v) N-chlorobenzenesulfonamide for 10 min and washed 5 times with deionized water. They were placed in 14 cm Petri dishes containing paper tissues saturated with deionized water. After 72 h of cultivation at 25° C. in darkness, the roots of the seedlings were cut off. The explants, consisting of two cotyledons and hypocotyls, were placed in 5 cm Petri dishes onto two layers of filter paper soaked with 1 ml of the incubation medium containing 10 mmol of NA2HPO4—KH2PO4, pH 6.8, 5 mmol of tyrosine and the compound to be tested. There were 20 explants per dish. The procedure was carried out under a green safe light in a darkroom. […] The concentration of betacyanin was determined from the absorbencies at 537 nm and 620 nm as follows: DA=A537 nm−A620 nm. […] Relative activity of the compound at this concentration was calculated. The activity obtained for 10^−5 M 6-benzylaminopurine (BAP) was defined as 100%.
(§1) The compounds to be tested were dissolved in dimethylsulfoxide (DMSO) and the solution brought up to 10^−3 M with distilled water.

excised wheat leaf tips = experiment: Antisenescence test, retention of chlorophyll in excised wheat leaf tips; set-up: species or system Triticum aestivum cv. Hereward; settings: for activity (%) [10^−4 mol · l^−1 BAP = 100%]: retention of chlorophyll in excised wheat leaf tips at the concentration with highest activity, 10 replicate determinations; for concentration with highest activity: retention of chlorophyll in excised wheat leaf tips, tested range 10^−8 M to 10^−4 M, 96 h in the dark at 25° C.
Method: Testing of antisenescence properties of novel cytokinin compounds on wheat leaf segments. Seeds of winter wheat, Triticum aestivum cv. Hereward, were washed under running water for 24 hours and then sown on vermiculite soaked with the Knop's solution. They were placed in the grow chamber at 25° C. with a 16 h-8 h light period at 50 mmol.m^−2.s^−1. After 7 days, the first leaf was fully developed and the second leaf had started to grow. A 35 mm long tip section of the first leaf, was removed from each of 5 seedlings and trimmed slightly to a combined weight of 100 mg. The basal ends of the five leaf tips were placed in the wells of a microtiter polystyrene plate containing […] of the solution of the tested compound each. The entire plate was inserted into a plastic box lined with paper tissues soaked with distilled water to prevent leaf sections from drying out. After 96 h incubation in the dark at 25° C., the leaves were removed and chlorophyll was extracted by heating at 80° C. for 10 min in 5 ml of 80% ethanol (v/v). The sample volume was then restored to 5 ml by the addition of 80% ethanol (v/v). The absorbance of the extract was recorded at 665 nm. In addition, chlorophyll extracts from fresh leaves and leaf tips incubated in deionized water were measured. […] Relative activity of the compound at this concentration was calculated (Table 7). The activity obtained for 10^−4 M 6-benzylaminopurine (BAP) was defined as 100%. The values shown are means of five replicates and the whole experiment was repeated twice.
as §1

[3] = tested on: human diploid fibroblasts (HCA cells, HCA20, HCA40, HCA60); experiment: Senescent cells (β-galactosidase staining) in culture of human fibroblasts; format: cell-based; settings: for SENESCENT CELLS (%) HCA20: human fibroblasts passage 20 (HCA20); for SENESCENT CELLS (%) HCA40: human fibroblasts passage 40 (HCA40); for SENESCENT CELLS (%) HCA60: human fibroblasts passage 60 (HCA60)
Method: In this example, human diploid fibroblasts (HCA cells of various passage levels: passage 20—designated HCA20; passage 40—designated HCA40; passage 60—designated HCA60) were stained for β-galactosidase activity. The medium used for the cell cultivation was removed, the cells were washed twice in […], and fixed in 2-3 ml of fixing solution comprised of a 2% formaldehyde and 0.2% glutaraldehyde in PBS. The cells were incubated at room temperature for 5 minutes, and then washed twice with PBS. The cells were subsequently incubated at 37° C.

[4] = tested on: promyelocytic HL-60 leukemia; experiment: In vitro cytotoxicity, Calcein AM assay; settings: read-out: GI50 HL60
Method: (§2) Because only metabolically active cells cleave Calcein AM, these assays detect viable cells exclusively. The quantity of reduced Calcein AM corresponds to the number of vital cells in the culture.
(§3) The cells were maintained in Nunc/Corning 80 cm^2 plastic tissue culture flasks and cultured in cell culture medium (DMEM with 5 g/l glucose, 2 mM glutamine, 100 U/ml penicillin, 100 mg/ml streptomycin, 10% fetal calf serum and sodium bicarbonate).
(§4) The cell suspensions that were prepared and diluted according to the particular cell type and the expected target cell density (2,500-30,000 cells per well based on cell growth characteristics) were added by pipette (80 ml) into 96-well microtiter plates. Inoculates were allowed a pre-incubation period of 24 hours at 37° C. and 5% CO2 for stabilization. Four-fold dilutions of the intended test concentration were added at time zero in 20 ml aliquots to the microtiter plate wells. Usually, the compound tested was evaluated at six 4-fold dilutions. […] All drug concentrations were examined in duplicate. Incubations of cells with the tested compounds lasted for 72 hours at 37° C., in a 5% CO2 atmosphere and 100% humidity. At the end of the incubation period, the cells were assayed by using Calcein AM. Ten microliters of the stock solution were pipetted into each well and incubated for 1 hour. Fluorescence (FD) was measured with the Labsystem FIA Reader Fluoroscan Ascent (UK).

[5] = tested on: breast carcinoma cell line MCF-7; experiment: In vitro cytotoxicity, Calcein AM assay; settings: read-out: GI50 MCF7
mouse fibroblasts NIH3T3 = experiment: In vitro cytotoxicity, Calcein AM assay; settings: read-out: GI50 NIH-3T3
human osteosarcoma HOS = experiment: In vitro cytotoxicity, Calcein AM assay; settings: read-out: GI50 HOS
Method: as §2, §3, §4

[6] = tested on: Human T-lymphoblastic leukemia cell line CEM; experiment: In vitro cytotoxicity, Calcein AM assay; settings: Homo sapiens, 72 h, read-out: GI50 CEM
Method: as §2, §3, §4

| SMILES | concentration with highest activity [1] | Activity (%) [10^−5 mol · l^−1 BAP = 100%] [1] [%] | concentration with highest activity [2] | Activity (%) [10^−5 mol · l^−1 BAP = 100%] [2] [%] | activity (%) [10^−4 mol · l^−1 BAP = 100%] (excised wheat leaf tips) [%] | concentration with highest activity (excised wheat leaf tips) | SENESCENT CELLS (%) HCA20 [3] [%] | SENESCENT CELLS (%) HCA40 [3] [%] | SENESCENT CELLS (%) HCA60 [3] [%] | GI50 ([4]; HL60, 72 hours, Calcein AM) [µM] | GI50 ([5]; MCF7, 72 hours, Calcein AM) [µM] | GI50 (mouse fibroblasts NIH3T3; NIH-3T3, 72 hours, Calcein AM) [µM] | GI50 (human osteosarcoma HOS; HOS, 72 hours, Calcein AM) [µM] | GI50 ([4]; Homo sapiens, HL-60, 72 h) [µM] | GI50 ([5]; Homo sapiens, MCF7, 72 h) [µM] | GI50 (mouse fibroblasts NIH3T3; Mus musculus, NIH3T3, 72 h) [µM] | GI50 (human osteosarcoma HOS; Homo sapiens, 72 h) [µM] | GI50 [6] [µM] |
| --- | --- | --- | --- | --- | --- | --- | --- | --- | --- | --- | --- | --- | --- | --- | --- | --- | --- | --- |
| COc1ccc(CNc2ncnc3c2ncn3C2CCCCO2)cc1O (stereo not drawn) | 10^−6 mol · l^−1 | 55 | 10^−4 mol · l^−1 | 41 | 47 | 10^−4 mol · l^−1 | 5 | 7 | 29 | > 167 | > 167 | > 167 | > 167 |  |  |  |  |  |
| CCOC(C)n1cnc2c(NC/C=C(\C)CO)ncnc21 (stereo not drawn) | 10^−4 mol · l^−1 | 102.8 | 10^−4 mol · l^−1 | 92.5 | 92.5 | 10^−4 mol · l^−1 |  |  |  | > 167 | > 167 | > 167 | > 167 |  |  |  |  |  |
| C/C(=C\CNc1ncnc2c1ncn2CCCCCl)CO | 10^−4 mol · l^−1 | 103.5 | 10^−4 mol · l^−1 | 123.8 | 73.8 | 10^−4 mol · l^−1 |  |  |  | > 167 | > 167 | > 167 | > 167 |  |  |  |  |  |
| C/C(=C\CNc1ncnc2c1ncn2C1CCCO1)CO (stereo not drawn) | 10^−5 mol · l^−1 | 89 | 10^−4 mol · l^−1 | 117 | 45 | 10^−4 mol · l^−1 |  |  |  | > 167 | > 167 | > 167 | > 167 |  |  |  |  |  |
| Cc1cc(Nc2ncnc3c2ncn3C2CCCCO2)ccc1O (stereo not drawn) [4-hydroxy-3-methylanilino / tetrahydropyran-2-yl] | 10^−5 mol · l^−1 | 12 | 10^−4 mol · l^−1 | 15 | 7 | 10^−4 mol · l^−1 | 3 | 4 | 19 | > 167 | > 167 | > 167 | > 167 |  |  |  |  |  |
| Cc1cc(Nc2ncnc3c2ncn3C2CCCCO2)ccc1O (stereo not drawn) [4-hydroxy-5-methylanilino / tetrahydropyran-2-yl] | 10^−5 mol · l^−1 | 10 | 10^−4 mol · l^−1 | 17 | 10 | 10^−4 mol · l^−1 | 4 | 4 | 18 | > 167 | > 167 | > 167 | > 167 |  |  |  |  |  |
| Oc1ccc(CNc2ncnc3c2ncn3CCCCCl)cc1 [4-hydroxybenzylamino / 4-chlorobutyl, 6-(4-hydroxybenzylamine)-9-(4-chlorobutyl)purine] |  |  | 10^−4 mol · l^−1 | 33.4 | 33.4 | 10^−4 mol · l^−1 |  |  |  | > 167 | > 167 | > 167 | > 167 |  |  |  |  |  |
| Oc1cccc(CNc2ncnc3c2ncn3C2CCCCO2)c1 (stereo not drawn) [6-(3-hydroxybenzylamino)-9-(tetrahydropyran-2-yl)purine] | 10^−5 mol · l^−1 | 139 | 10^−4 mol · l^−1 | 105.1 | 133.1 | 10^−4 mol · l^−1 | 5 | 3 | 25 |  |  |  |  |  |  |  |  |  |
| CC(CO)CCNc1ncnc2c1ncn2C1CCCCO1 (stereo not drawn) [6-(4-hydroxy-3-methylbutylamino)-9-(tetrahydropyran-2-yl)purine] | 10^−5 mol · l^−1 | 112 | 10^−4 mol · l^−1 | 83 | 95 | 10^−4 mol · l^−1 | 5 | 2 | 25 |  |  |  |  |  |  |  |  |  |
| Oc1ccc(CNc2ncnc3c2ncn3C2CCCO2)cc1 (stereo not drawn) [6-(4-hydroxybenzylamino)-9-(tetrahydrofuran-2-yl)-purine] | 10^−5 mol · l^−1 | 27 | 10^−4 mol · l^−1 | 13 | 3 | 10^−4 mol · l^−1 | 5 | 5 | 16 |  |  |  |  | > 167 | > 167 | > 167 | > 167 |  |
| C/C(=C\CNc1ncnc2nc[nH]c12)CO [6-((E)-4-hydroxy-3-methylbut-2-enylamino)purine, reference compound] |  | 86.9 |  | 116 | 28.3 |  |  |  |  |  |  |  |  | > 167 | > 167 | > 167 | > 167 | > 167 |
| CCOCCn1cnc2c(NCc3ccc(O)cc3)ncnc21 [Compound 133, 6-(4-hydroxybenzylamine)-9-(1-ethoxyeth-2-yl)purine] |  |  |  |  |  |  |  |  |  | > 167 | > 167 | > 167 | > 167 |  |  |  |  |  |
